Among the data in article PMC8540442, “KBE009: A Bestatin-Like Inhibitor of the Trypanosoma cruzi Acidic M17 Aminopeptidase with In Vitro Anti-Trypanosomal Activity” (Life, 2021) are IC50 values, retold here.

The experiment addresses T1, TcLAP (T. cruzi acidic M17 leucyl-aminopeptidase; LAPTc) (Trypanosoma cruzi, UniProt Q4DZJ3).
T1 construct: gene Tc00.1047053508799.240; recombinant TcLAP (rTcLAP)
T1 sequence (Q4DZJ3 1-520): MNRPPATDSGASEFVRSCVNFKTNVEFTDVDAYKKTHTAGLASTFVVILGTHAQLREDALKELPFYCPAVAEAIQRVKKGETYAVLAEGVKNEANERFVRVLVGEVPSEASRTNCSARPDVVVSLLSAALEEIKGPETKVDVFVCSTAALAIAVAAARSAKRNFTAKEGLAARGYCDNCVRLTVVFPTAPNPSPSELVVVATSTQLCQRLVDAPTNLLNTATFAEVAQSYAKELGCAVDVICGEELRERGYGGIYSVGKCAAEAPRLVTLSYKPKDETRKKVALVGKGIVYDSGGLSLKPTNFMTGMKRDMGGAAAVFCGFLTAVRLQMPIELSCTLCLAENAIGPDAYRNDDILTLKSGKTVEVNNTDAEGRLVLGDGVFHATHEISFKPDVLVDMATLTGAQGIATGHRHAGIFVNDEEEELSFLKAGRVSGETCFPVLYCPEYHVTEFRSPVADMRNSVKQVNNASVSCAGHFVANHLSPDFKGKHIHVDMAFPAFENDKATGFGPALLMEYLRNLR
Put plainly: continuous chromogenic assay of purified rTcLAP with Leu-pNA at […] nm, […] min preincubation. In kind it is biochemical.

For `CC(C)C[C@@H](C(=O)O)N(C(=O)[C@H](N)Cc1ccccc1)C(C(=O)NCc1ccccc1)c1ccco1` (stereo partly shown) [KBE009], the IC50 was 66 ± 13.5 µM.

In general, IC50 refers to the midpoint of a concentration-inhibition curve. A higher IC50 goes with weaker potency.
